Experimental data reported in US9682928B2 (NeuroPro Therapeutics, Inc., priority 2009, dated 2017).
“And” between values parts separate entries of the source, which are not always exact repeats. Equal values may be shown once. “Also recorded” adds a separate entry of the source.

Key:
[1] = tested on: rats; assay: Contextual fear conditioning in rats; assay type: in vivo, rat; conditions: I.V.; furosemide 100 mg/kg, bumetanide 50 mg/kg
Method: Contextual fear conditioning involves pairing an aversive event, in this case moderate foot shock, with a distinctive environment. The strength of the fear memory is assessed using freezing, a species-typical defensive reaction in rats, marked by complete immobility, except for breathing. […] However, if they are allowed to explore the distinctive environment sometime before the immediate shock, they show intense anxiety and fear when placed back into the same environment. By procedurally dividing contextual fear conditioning into two phases, the effects of treatments on memory for the context (specifically a hippocampus based process) from learning the association between context and shock or experiencing the aversiveness of the shock (which depend upon emotional response circuitry including amygdala) were separately studied. […] The experiment employed 24 rats. […] Each rat was again placed into the same environment for 8 min during which time freezing was measured, as an index of Pavlovian conditioned fear. […] Measurement of freezing was accomplished through an overhead video camera connected to the microcomputer and was automatically scored using a specialty piece of software, FreezeFrame (OER Inc., Reston, Va.) Total freezing time was analyzed in a one-way analysis of variance (ANOVA) test, with drug dose as the […] factor.

[2] = in vivo; conditions: dog
[3] = biological target: T1, δ-containing GABAA receptors (Homo sapiens, UniProt O14764); assay: Whole-cell patch clamp, transfected HEK-293T cells; assay type: cell-based, rat or human; conditions: 10 μM NTP-2014
T1 construct: expressed in transfected cells; host or cells: HEK-293T, transient transfection
Method: (§1) The addition of GABA to […] activates the recombinant expressed GABAA receptors, creating an ion movement through the ion channel in the GABAA receptor. The electrical current generated by the movement of chloride ions into the cells can be quantified.
(§2) HEK-293T cells were transiently transfected with rat or human GABAA receptor subunits. Whole-cell patch clamp recording was performed at −50 mV unless otherwise indicated. Test compounds was diluted from a freshly made stock in DMSO, GABA was prepared from a frozen stock. For each experiment GABA or GABA+a test compound was applied for 5 seconds, and the electrical current generated by the movement of chloride ions into the cells was measured and recorded as a trace of current versus time.

[4] = biological target: T2, α2β3γ2 GABAA receptor isoform (Homo sapiens, UniProt P18507+P28472+P47869); assay: Whole-cell patch clamp, transfected HEK-293T cells; assay type: cell-based, rat or human; conditions: 10 μM NTP-2014; 1 μM and 100 μM GABA
T2 construct: expressed in transfected cells; host or cells: HEK-293T, transient transfection
T2 sequence (P47869 29-451): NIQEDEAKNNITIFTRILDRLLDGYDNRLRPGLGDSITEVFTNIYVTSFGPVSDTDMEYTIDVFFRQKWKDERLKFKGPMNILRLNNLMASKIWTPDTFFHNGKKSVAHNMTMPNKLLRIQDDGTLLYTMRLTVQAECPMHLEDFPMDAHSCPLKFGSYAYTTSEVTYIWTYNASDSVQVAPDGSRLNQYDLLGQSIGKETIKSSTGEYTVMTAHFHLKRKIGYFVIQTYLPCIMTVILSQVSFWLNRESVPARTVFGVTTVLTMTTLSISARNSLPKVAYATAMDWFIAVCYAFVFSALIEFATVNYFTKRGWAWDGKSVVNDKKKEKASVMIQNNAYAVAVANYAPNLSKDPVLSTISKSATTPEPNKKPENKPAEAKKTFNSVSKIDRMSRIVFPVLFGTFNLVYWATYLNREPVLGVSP
T2 sequence (P28472 26-473): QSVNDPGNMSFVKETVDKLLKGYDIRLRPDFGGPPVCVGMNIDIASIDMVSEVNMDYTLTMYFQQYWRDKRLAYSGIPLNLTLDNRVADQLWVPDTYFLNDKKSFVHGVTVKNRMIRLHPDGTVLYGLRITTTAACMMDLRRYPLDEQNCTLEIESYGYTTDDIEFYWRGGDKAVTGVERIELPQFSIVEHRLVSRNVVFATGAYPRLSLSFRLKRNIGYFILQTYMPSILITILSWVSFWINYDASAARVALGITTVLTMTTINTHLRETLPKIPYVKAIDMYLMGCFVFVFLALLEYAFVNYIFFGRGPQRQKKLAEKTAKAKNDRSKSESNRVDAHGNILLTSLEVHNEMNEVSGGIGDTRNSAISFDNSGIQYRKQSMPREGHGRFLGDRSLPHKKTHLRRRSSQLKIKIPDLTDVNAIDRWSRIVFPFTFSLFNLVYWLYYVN
T2 sequence (P18507 40-475): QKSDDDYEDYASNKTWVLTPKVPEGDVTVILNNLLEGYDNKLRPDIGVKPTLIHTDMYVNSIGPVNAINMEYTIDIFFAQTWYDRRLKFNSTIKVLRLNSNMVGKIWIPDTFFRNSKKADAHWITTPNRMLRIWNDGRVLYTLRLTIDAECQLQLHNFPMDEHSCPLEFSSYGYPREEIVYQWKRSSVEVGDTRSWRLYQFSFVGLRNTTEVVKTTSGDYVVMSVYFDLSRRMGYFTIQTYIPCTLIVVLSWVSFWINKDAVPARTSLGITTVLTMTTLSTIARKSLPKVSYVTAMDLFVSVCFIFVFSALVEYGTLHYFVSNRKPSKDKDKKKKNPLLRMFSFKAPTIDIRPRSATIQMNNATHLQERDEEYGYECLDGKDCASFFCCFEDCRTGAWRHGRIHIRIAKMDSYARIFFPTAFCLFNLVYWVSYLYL
Method: as §1, §2
(§3) Compounds described herein (e.g., NTP-2014) were tested at high and low GABA concentrations against multiple GABAA receptor isoforms (e.g., α1β3γ2, α2β3 γ2, α3β3γ2, α3β3γ2, α4β3γ2, α5β3γ2, α6β3γ2). […] NTP-2014 inhibits the currents in the parasynaptic α4 GABAA receptor isoform in GABAergic interneurons. […]

[5] = biological target: T3, α6β3γ2 GABAA receptor isoform (Homo sapiens, UniProt P18507+P28472+Q16445); assay: Whole-cell patch clamp, transfected HEK-293T cells; assay type: cell-based, rat or human
T3 construct: expressed in transfected cells; host or cells: HEK-293T, transient transfection
T3 sequence (Q16445 20-453): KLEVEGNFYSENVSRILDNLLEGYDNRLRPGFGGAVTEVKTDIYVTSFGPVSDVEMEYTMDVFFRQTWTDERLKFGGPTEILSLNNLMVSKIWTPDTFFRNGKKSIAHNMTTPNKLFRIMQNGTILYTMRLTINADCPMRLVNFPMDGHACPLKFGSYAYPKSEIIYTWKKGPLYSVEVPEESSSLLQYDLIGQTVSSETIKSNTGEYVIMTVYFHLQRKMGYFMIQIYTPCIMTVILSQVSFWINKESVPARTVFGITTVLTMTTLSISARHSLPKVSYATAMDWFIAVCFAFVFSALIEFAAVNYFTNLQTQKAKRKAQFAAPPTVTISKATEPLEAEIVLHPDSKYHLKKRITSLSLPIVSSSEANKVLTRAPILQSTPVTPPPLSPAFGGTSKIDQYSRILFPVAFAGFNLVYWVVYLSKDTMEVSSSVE
T3 sequence (P28472 26-473): as the sequence (P28472 26-473) above
T3 sequence (P18507 40-475): as the sequence (P18507 40-475) above
Method: as §1, §2, §3

[6] = biological target: T4, α1β3γ2 GABAA receptor isoform (Homo sapiens, UniProt P14867+P18507+P28472); assay: Whole-cell patch clamp, transfected HEK-293T cells; assay type: cell-based, rat or human; conditions: 10 μM NTP-2014
T4 construct: expressed in transfected cells; host or cells: HEK-293T, transient transfection
T4 sequence (P14867 28-456): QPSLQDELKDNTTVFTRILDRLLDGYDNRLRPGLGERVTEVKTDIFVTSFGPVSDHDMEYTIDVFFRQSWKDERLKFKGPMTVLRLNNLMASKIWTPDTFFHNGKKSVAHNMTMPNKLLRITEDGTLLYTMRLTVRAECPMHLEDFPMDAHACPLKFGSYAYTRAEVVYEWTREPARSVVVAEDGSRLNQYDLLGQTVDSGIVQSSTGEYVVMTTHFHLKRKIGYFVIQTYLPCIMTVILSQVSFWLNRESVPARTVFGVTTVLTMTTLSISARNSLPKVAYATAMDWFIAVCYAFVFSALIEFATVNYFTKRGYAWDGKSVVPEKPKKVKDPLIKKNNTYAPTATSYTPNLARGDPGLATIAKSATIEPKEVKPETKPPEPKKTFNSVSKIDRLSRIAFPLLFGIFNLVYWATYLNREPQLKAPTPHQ
T4 sequence (P28472 26-473): as the sequence (P28472 26-473) above
T4 sequence (P18507 40-475): as the sequence (P18507 40-475) above
Method: as §1, §2, §3

[7] = biological target: T5, α5β3γ2 GABAA receptor isoform (Homo sapiens, UniProt P18507+P28472+P31644); assay: Whole-cell patch clamp, transfected HEK-293T cells; assay type: cell-based, rat or human; conditions: 10 μM NTP-2014; 1 μM and 100 μM GABA
T5 construct: expressed in transfected cells; host or cells: HEK-293T, transient transfection
T5 sequence (P31644 32-462): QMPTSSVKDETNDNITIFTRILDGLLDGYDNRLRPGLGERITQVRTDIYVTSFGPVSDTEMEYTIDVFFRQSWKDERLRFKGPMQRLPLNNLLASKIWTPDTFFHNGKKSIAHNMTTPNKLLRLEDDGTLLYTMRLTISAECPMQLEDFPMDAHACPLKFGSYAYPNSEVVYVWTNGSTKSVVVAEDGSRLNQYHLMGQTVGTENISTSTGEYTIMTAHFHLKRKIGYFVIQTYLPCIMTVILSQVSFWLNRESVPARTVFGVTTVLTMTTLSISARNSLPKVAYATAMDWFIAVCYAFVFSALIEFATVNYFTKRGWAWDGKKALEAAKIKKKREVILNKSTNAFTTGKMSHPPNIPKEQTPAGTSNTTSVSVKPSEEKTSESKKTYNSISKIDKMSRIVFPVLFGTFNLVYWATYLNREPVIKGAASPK
T5 sequence (P28472 26-473): as the sequence (P28472 26-473) above
T5 sequence (P18507 40-475): as the sequence (P18507 40-475) above
Method: as §1, §2, §3

[8] = biological target: T6, α3β3γ2 GABAA receptor isoform (Homo sapiens, UniProt P18507+P28472+P34903); assay: Whole-cell patch clamp, transfected HEK-293T cells; assay type: cell-based, rat or human; conditions: 10 μM NTP-2014; 1 μM and 100 μM GABA
T6 construct: expressed in transfected cells; host or cells: HEK-293T, transient transfection
T6 sequence (P34903 29-492): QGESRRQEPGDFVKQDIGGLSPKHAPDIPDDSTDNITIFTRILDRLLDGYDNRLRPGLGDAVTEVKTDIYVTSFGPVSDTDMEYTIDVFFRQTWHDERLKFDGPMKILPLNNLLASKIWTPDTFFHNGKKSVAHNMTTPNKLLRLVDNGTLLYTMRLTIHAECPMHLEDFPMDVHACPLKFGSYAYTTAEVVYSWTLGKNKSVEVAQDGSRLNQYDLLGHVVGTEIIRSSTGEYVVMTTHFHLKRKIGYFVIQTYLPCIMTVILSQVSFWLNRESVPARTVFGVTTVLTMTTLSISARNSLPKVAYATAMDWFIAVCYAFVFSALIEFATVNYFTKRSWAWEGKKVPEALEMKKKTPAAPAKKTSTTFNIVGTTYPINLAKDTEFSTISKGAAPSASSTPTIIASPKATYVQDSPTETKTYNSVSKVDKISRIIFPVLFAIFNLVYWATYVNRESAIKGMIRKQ
T6 sequence (P28472 26-473): as the sequence (P28472 26-473) above
T6 sequence (P18507 40-475): as the sequence (P18507 40-475) above
Method: as §1, §2, §3

[9] = Tolerability after oral administration; assay type: in vivo
[10] = tested on: GABAA-IPSCs, hippocampal slices (CA1 pyramidal cell layer); assay: In vitro hippocampal slice recordings of miniature and spontaneous IPSCs; assay type: cell-based; conditions: two experiments
Method: Ion flux in neuronal cells was measured using standard techniques. Kandel and Schwartz Principles of Neural Science 2nd Edition (1985), see, e.g., pages 128-131. Recording was performed in vitro in hippocampal slices (CA1 pyramidal cell layer). For recording GABAA-IPSCs, glutamatergic and GABAB transmission was blocked by adding DNOX (50 μM), AP-5 (50 μM), and SCH50911 ([…]) into the medium. The intracellular solution comprised CsCl and OX314.

[11] = biological target: T7, NKCC1 (Homo sapiens, UniProt P55011); assay: NKCC1 Rb+ influx assay in human adult skin fibroblasts; assay type: cell-based
T7 construct: endogenous in cells; host or cells: human adult skin fibroblasts (primary culture)
T7 sequence (P55011 whole entry): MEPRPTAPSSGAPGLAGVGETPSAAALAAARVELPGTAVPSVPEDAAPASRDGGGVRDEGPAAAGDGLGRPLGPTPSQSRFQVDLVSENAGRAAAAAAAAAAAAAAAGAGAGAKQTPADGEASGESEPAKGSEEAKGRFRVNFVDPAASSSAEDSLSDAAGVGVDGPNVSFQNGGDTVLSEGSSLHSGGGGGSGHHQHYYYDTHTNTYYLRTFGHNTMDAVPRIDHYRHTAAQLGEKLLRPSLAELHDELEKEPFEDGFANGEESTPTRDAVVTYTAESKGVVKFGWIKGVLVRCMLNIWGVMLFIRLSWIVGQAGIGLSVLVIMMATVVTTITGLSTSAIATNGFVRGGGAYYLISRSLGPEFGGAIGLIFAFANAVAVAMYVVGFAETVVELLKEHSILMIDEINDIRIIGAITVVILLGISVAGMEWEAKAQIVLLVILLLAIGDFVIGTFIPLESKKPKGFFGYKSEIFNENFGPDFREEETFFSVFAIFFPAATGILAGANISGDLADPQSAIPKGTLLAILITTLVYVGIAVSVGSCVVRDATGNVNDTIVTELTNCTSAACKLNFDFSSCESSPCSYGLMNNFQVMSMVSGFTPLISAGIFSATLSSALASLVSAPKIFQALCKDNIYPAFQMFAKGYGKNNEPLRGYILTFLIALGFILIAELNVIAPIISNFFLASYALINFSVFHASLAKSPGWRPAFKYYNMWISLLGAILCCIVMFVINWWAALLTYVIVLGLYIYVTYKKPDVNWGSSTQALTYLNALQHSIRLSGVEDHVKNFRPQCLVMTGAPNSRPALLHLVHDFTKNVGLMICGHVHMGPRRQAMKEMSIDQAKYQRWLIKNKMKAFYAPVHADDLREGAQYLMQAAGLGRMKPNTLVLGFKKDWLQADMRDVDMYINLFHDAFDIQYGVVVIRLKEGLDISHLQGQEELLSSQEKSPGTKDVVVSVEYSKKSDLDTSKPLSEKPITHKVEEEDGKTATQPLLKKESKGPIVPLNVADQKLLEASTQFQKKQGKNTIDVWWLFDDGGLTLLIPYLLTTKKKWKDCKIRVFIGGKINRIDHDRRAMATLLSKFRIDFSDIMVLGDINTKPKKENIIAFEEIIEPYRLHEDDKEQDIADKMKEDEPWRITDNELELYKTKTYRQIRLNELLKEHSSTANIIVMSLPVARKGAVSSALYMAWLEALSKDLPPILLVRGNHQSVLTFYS
Method: The protocol may be done in accordance with Panet and Alan The Journal of Cell Biology, Volume 114, Number 2, July 1991 337-342. Human adult skin fibroblasts were seeded at 3 concentrations: 3000/5000/10 000 on 96 well culture plates with DMEM supplemented with 10% FCS and 4 mM glutamine (37° C., CO2). Medium was replaced with DMEM supplemented with 0.2% FCS, 4 mM glutamine and 20 mM HEPES (37° C., CO2). The NKCC assay may be performed according the standard operating procedure as described in Chassande, et al. (1988) “The Na+/K+/CI^− cotransport in C6 glioma cells.” Eur. J. Biochem. 171: 425-433.
This allows for the administration of the compounds described herein described herein without unwanted diuretic side effects.

[12] = Brain levels in rat following IP administration; assay type: in vivo; conditions: PBx pretreated; for Concentration of NTP-2024 in rat brain: NTP-2024 100 mg/kg IP; for Concentration of NTP-2000 (bumetanide) in rat brain: after NTP-2024 100 mg/kg IP
[13] = tested on: Male CD-1 mice; assay: Chung (SNL) neuropathic pain study in mice; assay type: in vivo, mouse; conditions: high dose group (180 mg/kg NTP-2014; 100 mg/kg NTP-2026; gabapentin 100 mg/kg, i.p.)

## CCCCNc1cc(C(=O)O)cc(S(N)(=O)=O)c1Oc1ccccc1 [Bumetanide, reference compound]
[1]
  Freezing vs vehicle alone: significantly less freezing

## CCCCN(CCCC)c1cc(C(=O)O)cc(S(N)(=O)=O)c1Oc1ccccc1 [NTP-2014, 3-Aminosulfonyl-5-N,N-dibutylamino-4-phenoxybenzoic acid]
[2]
  NOAEL at 14 day: 4.5 mg/kg
[3]
  Effect on δ-containing receptors: unaffected
[4]
  Effect on current, α2 containing isoform: slowed the decay rate; also recorded: inhibited
[5]; 0.1, 1, 10 μM GABA
  Effect on currents, α6 containing receptors: inhibited by NTP-2014 at higher GABA concentrations, but unaffected at lower GABA concentrations
[5]; FIG. 41C, read-out: EC50 in α6 containing GABAA receptor isoforms
  EC50: 20.2 µM
[5]; read-out: IC50, receptors containing the α6 subunit
  IC50: 10 to 30 µM
[6]
  Effect on current, α1β3γ2 GABAA receptor isoform: no significant activation; also recorded: amplitude of the current was not increased
[7]
  Effect on current, α5 containing isoform: slowed the decay rate; also recorded: inhibited
[8]
  Effect on current, α3 containing isoform: slowed the decay rate; also recorded: inhibited
[9]; after oral administration
  CNS side effects: no CNS side effects
[9]; in vivo
  Toxicological tolerability: well-tolerated
[10]; from 257 ms (FIG. 34A) and from 535 ms (FIG. 34B)
  Mean interval between inhibitory events, spontaneous IPSCs, with NTP-2014: 205 ms and 401 ms
[10]; from 315 ms (FIG. 35A) and from 361 ms (FIG. 35B)
  Mean interval between inhibitory events, miniature IPSCs, with NTP-2014: 162 ms and 160 ms
[11]
  Inhibition of NKCC1 in the presence of a co-transporter activating mitogen (FGF): did not inhibit
[11]; primary cell cultures
  Inhibition of NKCC1 chloride transport: no inhibition

## CCCCNc1cc(C(=O)NN2CCOCC2)cc(S(N)(=O)=O)c1Oc1ccccc1 [NTP-2024, N-Morpholinyl 3-Aminosulfonyl-5-N-butylamino-4-phenoxybenzamide]
[12]; 15 m
  Concentration of NTP-2024 in rat brain: 283.783 ng/mL and 277.985 ng/mL and 226.803 ng/mL
  Concentration of NTP-2000 (bumetanide) in rat brain: BLQ (Below Limit of Quantitation (<1 ng/mL))
[12]; 30 m
  Concentration of NTP-2024 in rat brain: 223.370 ng/mL and 340.460 ng/mL and 348.182 ng/mL
[12]; 2 h
  Concentration of NTP-2024 in rat brain: 124.854 ng/mL and 112.217 ng/mL and 154.415 ng/mL
  Concentration of NTP-2000 (bumetanide) in rat brain: BLQ (Below Limit of Quantitation (<1 ng/mL))
[12]; 4 h
  Concentration of NTP-2024 in rat brain: 26.6338 ng/mL and 23.4893 ng/mL and 37.1694 ng/mL
  Concentration of NTP-2000 (bumetanide) in rat brain: BLQ (Below Limit of Quantitation (<1 ng/mL))
[12]; 6 h
  Concentration of NTP-2024 in rat brain: 25.4146 ng/mL and 18.4619 ng/mL and 25.7880 ng/mL
  Concentration of NTP-2000 (bumetanide) in rat brain: BLQ (Below Limit of Quantitation (<1 ng/mL))

## CCCCNc1cc(C(=O)N(C)CCCN(C)C)cc(S(N)(=O)=O)c1Oc1ccccc1 [NTP-2026, N-(3-(Dimethylamino)propyl)-N-methyl 3-Aminosulfonyl-5-N-butylamino-4-phenoxybenzamide]
[13]
  Sedation: Some minor sedation; also recorded: tactile hypersensitivity. Some minor
